One block for each compound: values may come before it.
Legend:
[1] = biological target: T1, hemoglobin in human whole blood (WB) (Homo sapiens, UniProt P68871+P69905); assay: Oxygen equilibrium curve (Hemox Analyzer), P50 in human whole blood; format: cell-based; conditions: blood matrix WB; for P50 (Torr): incubated 1-2 h at 37° C., n=3; for P50 increase (%): versus P50 control
T1 construct: Human whole blood was freshly withdrawn from healthy donors in heparinized microtubes; from tissue; host or cells: fresh human whole blood from healthy donors
Protocol: (§1) Some of the compounds described herein were tested for P50, the partial pressure of oxygen for half-saturation, on free hemoglobin (Hb) as well as human whole blood (WB) in different concentrations.
Human whole blood was freshly withdrawn from healthy donors in heparinized microtubes. The pH of the compound solutions was adjusted to approximately 7.0 and whole blood volumes at 1:1 ratios were incubated individually for 1-2 h at 37° C. with the above compounds. The measurement of the OEC was carried out with the Hemox Analyzer (TCS Scientific Co.) under the following conditions: pH 7.4, 135 mM NaCl, 5 mM KCl and 30 mM TES (N-[tris(hydroxymethyl)methyl]-2-aminoethanesulfonic acid) buffer at 37° C.

free hemoglobin (Hb) = biological target: T2, free hemoglobin (Hb) (Homo sapiens, UniProt P68871+P69905); assay: Oxygen equilibrium curve (Hemox Analyzer), P50 on free hemoglobin; format: biochemical; conditions: blood matrix Hb, 100 mM compound; for P50 (Torr): effector/Hb ratio 20, pH 7.4, 37° C., n=3; for P50 increase (%): versus P50 control
T2 construct: the cells were hemolysed by addition of 2 volumes of cold distilled water; tissue EFS-Alsace; host or cells: red blood cell concentrate
Protocol: as §1
The hemoglobin solution was prepared from red blood cells concentrate (EFS-Alsace) by washing three times with 1 volume of saline (1500×g, 10 min), the cells were hemolysed by addition of 2 volumes of cold distilled water. After centrifugation (7000×g, 30 min) for stroma removal, 5 ml of the clear hemoglobin solution were placed on a 2.5 cm×30 cm column of Sephadex G-25 equilibrated with 0.1 M sodium chloride+10^−5 M EDTA. The protein was eluted with the same solution at a rate of about 20 ml/h [Benesch, R.; Benesch, R. E. and Yu, C. I. Reciprocal binding of oxygen and diphosphoglycerate by human hemoglobin. Proc. Natl. Acad. Sci. USA (1968) 59, 526-532].
The allosteric modulation of the effectors was measured by the change in p50, the partial pressure of oxygen for half-saturation. The pH of the compound solutions was adjusted to approximately 7.0. Oxygen equilibrium curves (OEC) were carried out with the Hemox Analyzer (TCS Scientific Co.) under the following conditions: pH 7.4, 135 mM NaCl, 5 mM KCl and 30 mM TES (N—[tris(hydroxymethyl)methyl]-2-aminoethanesulfonic acid) buffer at 37° C. The concentration of free hemoglobin was 5·10^−3 M (577 nm, ε=58.4 mM^−1 cm^−1 per tetramer) and the final concentrations of the allosteric effectors were of 1.0·10^−1 M, resulting in an effector/Hb ratio of 20.

Human PI3Kδ (p110δ/p85α) = biological target: T3, Human PI3Kδ (p110δ/p85α) (Homo sapiens, UniProt O00329); assay: PI3K HTRF assay, PI3Kδ; format: biochemical
T3 construct: N-terminal GST tagged recombinant full-length human p110δ; GST (N); purchased Reaction Biology Corporation (RBC), Malvern, Pa; host or cells: Baculovirus infected Sf9 cells

class I PI3K = assay: PI3K HTRF assay (Reaction Biology), class I PI3K; format: biochemical, human; conditions: Yes = inhibition
Human PI3Kβ (p110β/p85α) = biological target: T4, Human PI3Kβ (p110β/p85α) (Homo sapiens, UniProt P42338); assay: PI3K HTRF assay, PI3Kβ; format: biochemical
T4 construct: N-terminal 6His-tagged recombinant full-length human p110β; 6His (N); purchased Reaction Biology Corporation (RBC), Malvern, Pa; host or cells: Baculovirus infected Sf21 cells

hemoglobin = hemoglobin (Homo sapiens, UniProt P68871+P69905); conditions: background statement; can displace Hb-bound BPG; cited from earlier work
hemoglobin, sequence (P69905 2-142 limits assumed): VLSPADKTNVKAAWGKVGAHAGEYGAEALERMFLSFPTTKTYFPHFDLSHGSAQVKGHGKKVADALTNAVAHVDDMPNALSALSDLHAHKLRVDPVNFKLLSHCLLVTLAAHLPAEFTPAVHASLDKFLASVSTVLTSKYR
hemoglobin, sequence (P68871 2-147 limits assumed): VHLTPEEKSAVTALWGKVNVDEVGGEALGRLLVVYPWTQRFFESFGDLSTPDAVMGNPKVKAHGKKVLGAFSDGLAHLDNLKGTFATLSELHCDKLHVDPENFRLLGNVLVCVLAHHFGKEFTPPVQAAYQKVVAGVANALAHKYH

T1 sequence (P69905 2-142 limits assumed): as the sequence (P69905 2-142 limits assumed) above
T1 sequence (P68871 2-147 limits assumed): as the sequence (P68871 2-147 limits assumed) above
T2 sequence (P69905 2-142 limits assumed): as the sequence (P69905 2-142 limits assumed) above
T2 sequence (P68871 2-147 limits assumed): as the sequence (P68871 2-147 limits assumed) above
T3 sequence (O00329 whole entry): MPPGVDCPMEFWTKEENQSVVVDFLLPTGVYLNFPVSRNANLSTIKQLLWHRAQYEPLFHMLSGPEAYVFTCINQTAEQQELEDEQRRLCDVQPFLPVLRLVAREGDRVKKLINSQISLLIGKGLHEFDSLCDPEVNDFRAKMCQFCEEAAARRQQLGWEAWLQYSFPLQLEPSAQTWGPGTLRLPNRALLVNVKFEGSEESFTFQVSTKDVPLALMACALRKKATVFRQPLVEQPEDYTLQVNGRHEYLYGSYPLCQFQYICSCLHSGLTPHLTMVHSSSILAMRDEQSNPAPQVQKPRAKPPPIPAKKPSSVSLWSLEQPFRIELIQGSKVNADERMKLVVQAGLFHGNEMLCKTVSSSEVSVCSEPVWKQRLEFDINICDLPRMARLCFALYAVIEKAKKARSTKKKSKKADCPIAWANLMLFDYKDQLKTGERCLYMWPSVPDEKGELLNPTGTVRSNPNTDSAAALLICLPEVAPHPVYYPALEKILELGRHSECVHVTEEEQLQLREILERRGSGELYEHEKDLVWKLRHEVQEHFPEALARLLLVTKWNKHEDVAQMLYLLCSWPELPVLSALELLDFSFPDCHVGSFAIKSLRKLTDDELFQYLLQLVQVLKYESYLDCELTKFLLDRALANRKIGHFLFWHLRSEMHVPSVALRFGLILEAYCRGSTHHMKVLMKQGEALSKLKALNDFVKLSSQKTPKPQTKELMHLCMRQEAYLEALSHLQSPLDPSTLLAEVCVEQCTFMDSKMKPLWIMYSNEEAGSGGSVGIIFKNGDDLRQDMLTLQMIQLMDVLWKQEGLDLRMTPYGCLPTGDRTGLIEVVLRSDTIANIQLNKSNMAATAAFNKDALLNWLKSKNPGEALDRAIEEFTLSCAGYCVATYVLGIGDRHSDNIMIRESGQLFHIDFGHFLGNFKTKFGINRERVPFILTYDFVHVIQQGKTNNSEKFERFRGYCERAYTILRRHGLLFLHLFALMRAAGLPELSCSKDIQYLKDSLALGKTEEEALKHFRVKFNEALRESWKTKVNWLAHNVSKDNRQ
T3 sequence (P27986 whole entry partner): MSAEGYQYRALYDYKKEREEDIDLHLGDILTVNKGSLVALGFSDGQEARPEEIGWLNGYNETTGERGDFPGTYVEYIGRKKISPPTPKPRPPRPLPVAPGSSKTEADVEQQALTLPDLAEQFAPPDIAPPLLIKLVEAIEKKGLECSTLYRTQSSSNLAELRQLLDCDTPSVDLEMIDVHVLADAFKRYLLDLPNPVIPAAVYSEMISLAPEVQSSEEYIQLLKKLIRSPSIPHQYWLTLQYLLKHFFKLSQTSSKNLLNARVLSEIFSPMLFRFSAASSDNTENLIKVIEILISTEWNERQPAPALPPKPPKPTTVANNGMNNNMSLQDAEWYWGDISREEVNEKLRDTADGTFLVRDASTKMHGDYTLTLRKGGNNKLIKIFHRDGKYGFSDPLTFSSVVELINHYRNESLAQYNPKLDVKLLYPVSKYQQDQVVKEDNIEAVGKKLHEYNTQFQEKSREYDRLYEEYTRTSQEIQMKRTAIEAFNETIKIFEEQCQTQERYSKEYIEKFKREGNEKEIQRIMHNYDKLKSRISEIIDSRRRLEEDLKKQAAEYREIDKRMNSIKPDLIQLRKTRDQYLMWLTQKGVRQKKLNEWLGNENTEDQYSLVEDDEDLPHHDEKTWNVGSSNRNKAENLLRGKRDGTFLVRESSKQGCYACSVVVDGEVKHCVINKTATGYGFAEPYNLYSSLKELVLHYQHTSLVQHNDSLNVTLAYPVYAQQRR
T4 sequence (P42338 whole entry): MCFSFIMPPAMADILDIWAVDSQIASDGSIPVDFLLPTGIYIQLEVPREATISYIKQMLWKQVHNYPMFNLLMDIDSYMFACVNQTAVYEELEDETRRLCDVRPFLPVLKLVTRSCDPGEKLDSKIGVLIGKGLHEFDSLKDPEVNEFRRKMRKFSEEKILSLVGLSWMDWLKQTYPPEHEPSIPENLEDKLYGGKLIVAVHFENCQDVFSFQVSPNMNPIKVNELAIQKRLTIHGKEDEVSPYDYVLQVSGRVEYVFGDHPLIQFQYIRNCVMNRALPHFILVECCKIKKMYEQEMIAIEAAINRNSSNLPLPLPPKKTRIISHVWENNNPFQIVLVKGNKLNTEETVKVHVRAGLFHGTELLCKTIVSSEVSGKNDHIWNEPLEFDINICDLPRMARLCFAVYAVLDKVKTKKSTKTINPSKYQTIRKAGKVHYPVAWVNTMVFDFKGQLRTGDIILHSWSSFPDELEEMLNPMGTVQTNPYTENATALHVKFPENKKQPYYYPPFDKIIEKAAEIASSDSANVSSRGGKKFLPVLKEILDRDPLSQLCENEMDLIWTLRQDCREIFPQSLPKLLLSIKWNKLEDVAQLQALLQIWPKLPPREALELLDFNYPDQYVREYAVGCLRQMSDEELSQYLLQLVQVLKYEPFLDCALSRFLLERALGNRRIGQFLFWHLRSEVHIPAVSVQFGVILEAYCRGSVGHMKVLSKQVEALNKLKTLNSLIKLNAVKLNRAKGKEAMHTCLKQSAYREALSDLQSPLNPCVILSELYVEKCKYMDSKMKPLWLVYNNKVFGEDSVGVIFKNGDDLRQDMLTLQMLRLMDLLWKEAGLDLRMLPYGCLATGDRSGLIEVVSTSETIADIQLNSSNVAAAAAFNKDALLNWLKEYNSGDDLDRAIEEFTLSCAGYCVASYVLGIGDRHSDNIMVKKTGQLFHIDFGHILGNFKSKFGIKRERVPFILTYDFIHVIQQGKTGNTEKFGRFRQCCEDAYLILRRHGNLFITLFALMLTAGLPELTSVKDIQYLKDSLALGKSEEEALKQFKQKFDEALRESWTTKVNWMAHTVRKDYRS
T4 sequence (P27986 whole entry partner): as the sequence (P27986 whole entry partner) above

P50 (Torr) ([1]; 120 mM compound): 30.17 ± 0.94 Torr | P50 increase (%) ([1]; 120 mM compound): 17% | P50 (Torr) (free hemoglobin (Hb)): 29.40 ± 1.20 Torr | P50 increase (%) (free hemoglobin (Hb)): 151%
Compound: O=P(O)(O)OCC(OP(=O)(O)O)C(COP(=O)(O)O)OP(=O)(O)O (stereo not drawn) [SP1-134, meso-erythritol tetraphosphate]

Compound: O=P1(O)OC2C3OP(=O)(O)OP(=O)(O)OC3C3OP(=O)(O)OP(=O)(O)OC3C2OP(=O)(O)O1 (stereo not shown) [OXY111A, Myo-ITPP]
activity against PI3Kδ (Human PI3Kδ (p110δ/p85α)): showed activity | PI3 Kinase Inhibition (class I PI3K): Yes | activity against PI3Kβ (Human PI3Kβ (p110β/p85α)): showed activity

Compound: Dibutyl-L-tartrate bisphosphate [SP1-219]
P50 (Torr) ([1]; 60 mM compound): 30.91 ± 1.76 Torr | P50 increase (%) ([1]; 60 mM compound): 11% | P50 (Torr) ([1]; 120 mM compound): 30.77 ± 1.44 Torr | P50 increase (%) ([1]; 120 mM compound): 11%

Compound: O=P(O)(O)O[C@H]1[C@H](OP(=O)(O)O)[C@@H](OP(=O)(O)O)[C@H](OP(=O)(O)O)[C@@H](OP(=O)(O)O)[C@H]1OP(=O)(O)O [Phytic acid, myo-inositol hexakisphosphate]
potency relative to BPG (fold) (hemoglobin): 1000 fold

Compound: L-tartrate bisphosphate [SP1-90]
P50 (Torr) (free hemoglobin (Hb)): 24.76 ± 1.31 Torr | P50 increase (%) (free hemoglobin (Hb)): 127%

Compound: CCOC(=O)[C@@H]1OP(=O)([O-])OP(=O)([O-])O[C@H]1C(=O)OCC.[Na+].[Na+] [OXY3012, L-DET]
PI3 Kinase Inhibition (class I PI3K): Yes

Compound: meso-Me Galactarate [OXY3006]
PI3 Kinase Inhibition (class I PI3K): Yes

Reference: patent US20140142052A1, “PHOSPHORYLATED POLYOLS, PYROPHOSPHATES, AND DERIVATIVES THEREOF HAVING BIOLOGICAL ACTIVITY” (NormOxys, Inc., priority 2012, published 2014)
